Experiments:
[1] = partial pressure of water over aqueous 2-hydroxyethylammonium formate solution, FTIR spectroscopy in the gas phase; type: physicochemical
Method: For this purpose, the partial pressure of water over an aqueous 2-hydroxyethylammonium formate solution was determined at a customary phase equilibrium temperature (by means of FTIR spectroscopy in the gas phase).

[2] = miscibility of ionic liquid with working substance water; type: physicochemical

Structure (SMILES)	factor by which the vapor pressure of water is reduced on dissolution in the ionic liquid [1]	partial pressure of water over the solution ([1]; 30.5° C., 84% by weight of 2-hydroxyethylammonium formate and 16% by weight of water, water itself about 40 mbar)	partial pressure of water over the solution ([1]; 34° C., 87% by weight of 2-hydroxyethylammonium formate and 13% by weight of water, water itself about 50 mbar)	miscibility with water [2]
NCCO.O=CO [2-hydroxyethylammonium formate]	4	about 10 mbar	about 12 mbar	–
CCn1cc[n+](C)c1.O=S(=O)([O-])C(F)(F)F [ethylmethylimidazolium triflate]	–	–	–	can be mixed with water

Reference: patent US9062899B2, “Pairs of working substances for absorption heat pumps, absorption refrigeration machines and heat transformers” (BASF SE, priority 2004, dated 2015)
